One assay concerns the target FGFR4 (Homo sapiens, UniProt P22455). Description: FGFR4 Caliper Assay (in vitro biochemical kinase analysis of FGFR4). The settings on record: read-out: Enzymatic activity FGFR4 IC50. The method in brief: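 Kinase reaction at 30° C for 40 min in 50 mM HEPES pH 7.5, 16 mM MgCl2, 1 mM DTT, 0.6% DMSO, stopped with EDTA. Phosphorylated and unphosphorylated fluorescent peptides separated by Caliper microfluidic mobility shift. IC50 by non-linear regression of percent inhibition.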

Assay [1] relates to Huh7 hepatocellular carcinoma cells. Description: FGFR4 cell proliferation experiment, Cell Titer Glo (CTG). The format is cell-based. The settings on record: Homo sapiens, Huh-7, 72 h, HuH-7 cells, 3 days; for IC50: concentration leading to absolute half growth inhibition; for EC50: concentration leading to half maximal growth inhibition. The method in brief: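 Cells treated with 5-fold serial dilutions starting at 10 μM for 3 days at 37° C, 5% CO2. Proliferation/survival quantified as cellular ATP by CellTiter-Glo luminescence.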
On the technique in general: Cellular ATP, detected with luciferase, serves as a proxy for viable cell number.

The structures appear in SMILES notation.

Chain of FGFR4 (P22455 22-802): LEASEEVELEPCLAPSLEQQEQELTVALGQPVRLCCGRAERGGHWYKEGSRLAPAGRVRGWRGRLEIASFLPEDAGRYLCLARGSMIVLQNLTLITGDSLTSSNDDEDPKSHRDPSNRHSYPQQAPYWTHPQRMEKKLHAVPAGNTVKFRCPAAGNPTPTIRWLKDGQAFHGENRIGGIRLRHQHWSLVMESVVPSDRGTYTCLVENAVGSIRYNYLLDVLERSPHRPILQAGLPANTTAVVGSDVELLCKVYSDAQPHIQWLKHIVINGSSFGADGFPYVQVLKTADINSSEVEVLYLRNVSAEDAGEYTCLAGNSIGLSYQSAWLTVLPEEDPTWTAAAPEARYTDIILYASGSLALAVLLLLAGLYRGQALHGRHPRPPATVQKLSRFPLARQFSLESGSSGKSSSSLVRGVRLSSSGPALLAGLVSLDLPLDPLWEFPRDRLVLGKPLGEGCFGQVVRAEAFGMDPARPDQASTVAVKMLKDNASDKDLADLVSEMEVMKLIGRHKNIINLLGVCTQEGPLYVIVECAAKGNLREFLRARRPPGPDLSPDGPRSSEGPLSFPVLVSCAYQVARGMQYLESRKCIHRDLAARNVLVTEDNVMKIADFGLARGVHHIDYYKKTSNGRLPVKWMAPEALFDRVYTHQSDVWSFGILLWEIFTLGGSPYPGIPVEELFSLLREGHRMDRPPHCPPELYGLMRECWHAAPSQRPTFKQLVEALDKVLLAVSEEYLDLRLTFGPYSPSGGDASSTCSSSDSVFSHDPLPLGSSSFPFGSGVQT

As usually defined, the IC50 is the concentration that inhibits the measured activity by half. Broadly, the EC50 is the concentration needed to bring the measured effect to its halfway point. The low end stands for a more potent agent, the high end for a less potent agent. Regarding `C=CC(=O)N[C@H]1COC[C@H]1Nc1ncc2cc(-c3c(Cl)c(OC)cc(OC)c3Cl)nc(Cl)c2n1` [Example 753, N-((3R,4S)-4-((8-chloro-6-(2,6-di-chloro-3,5-dimethoxyphenyl)py-rido[3,4-d]pyrimidin-2-yl)amino)tetrahydro-furan-3-yl)acrylamide], the IC50 on FGFR4 is 19 nM. In assay [1], this compound showed an IC50 of 212 nM and an EC50 of 130 nM.
The corresponding values for `[2H]C([2H])([2H])Oc1cc(OC([2H])([2H])[2H])c(Cl)c(-c2cc3cnc(N[C@@H]4COC[C@@H]4NC(=O)C=C)nc3c(OCC)n2)c1Cl` [Example 754, N-((3R,4S)-4-((6-(2,6-dichloro-3,5-bis(methoxy-d3)phenyl)-8-ethoxy-pyrido[3,4-d]pyrimidin-2-yl)amino)tetra-hydrofuran-3-yl)acrylamide] are 13.6 nM, 54 nM and 18 nM.
As to `C=CC(=O)N[C@H]1COC[C@H]1Nc1ncc2cc(-c3c(Cl)c(OC)cc(OC)c3Cl)nc(C3=CCOCC3)c2n1` [Example 756, N-((3R,4S)-4-((6-(2,6-dichloro-3,5-dimethoxyphenyl)-8-(3,6-dihydro-2H-pyran-4-yl)pyrido[3,4-d]pyrimidin-2-yl)amino)tetrahydrofuran-3-yl)acryl-amide], the IC50 is 20.2 nM at FGFR4 and 31 nM in assay [1]. The compound further came in with an EC50 in assay [1] of 19 nM.
In the case of `C=CC(=O)N[C@H]1COC[C@H]1Nc1ncc2cc(-c3c(Cl)c(OC)cc(OC)c3Cl)nc(NCC(CO)(CO)CO)c2n1` [Example 758, N-((3R,4S)-4-((6-(2,6-dichloro-3,5-dimethoxypehnyl)-8-((3-hydroxy-2,2-bis(hydroxymethyl)propyl)amino)py-rido[3,4-d]pyrimidin-2-yl)amino)tetra-hydrofuran-3-yl)acrylamide], the IC50 at FGFR4 came out at 5.9 nM. In assay [1], the IC50 came to 9.2 nM and the EC50 turned out to be 5.8 nM.
On to `C=CC(=O)N[C@H]1COC[C@H]1Nc1ncc2cc(-c3c(Cl)c(OC)cc(OC)c3Cl)nc(N3CC(CO)(CO)C3)c2n1` [Example 759, N-((3R,4S)-4-((8-(3,3-bis(hydroxy-methyl)azetidin-1-yl)-6-(2,6-dichloro-3,5-dimethoxyphenyl)pyrido[3,4-d]py-rimidin-2-yl)amino)tetrahydrofuran-3-yl)acrylamide], for which the IC50 on FGFR4 was determined as 5.7 nM; in assay [1], 61.1 nM. In assay [1], this compound gave an EC50 of 42.2 nM.
As for `C=CC(=O)N[C@H]1COC[C@H]1Nc1ncc2cc(-c3c(Cl)c(OC)cc(OC)c3Cl)nc(N3CCC(C)(O)C3)c2n1` (stereo partly drawn) [Example 760, N-((3R,4S)-4-((6-(2,6-dichloro-3,5-dimethoxyphenyl)-8-(3-hydroxy-3-methylpyrrolidin-1-yl)pyrido[3,4-d]py-rimidin-2-yl)amino)tetarhydrofuran-3-yl)acrylamide], the IC50 on FGFR4 was determined as 2.9 nM. For the same compound, in assay [1], it took 6.7 nM to reach half-maximal inhibition (IC50) and a half-maximal effect (EC50) was put at 5.5 nM.
For the compound `C=CC(=O)N[C@H]1COC[C@H]1Nc1ncc2cc(-c3cc(OC)cc(OC)c3Cl)nc(-c3cnn(C)c3)c2n1` [Example 761, N-((3R,4S)-4-((6-(2-chloro-3,5-dimeth-oxyphenyl)-8-(1-methyl-1H-pyrazol-4-yl)pyrido[3,4-d]pyrimidin-2-yl)ami-no)tetrahydrofuran-3-yl)acrylamide], the IC50 on FGFR4 came to 14.3 nM; in assay [1], 51.8 nM. The compound further showed an EC50 in assay [1] of 20.7 nM.
Regarding `C=CC(=O)N[C@H]1COC[C@H]1Nc1ncc2cc(-c3c(Cl)c(OC)cc(OC)c3Cl)nc(N3CC4CC(C3)O4)c2n1` [Example 762, N-((3R,4S)-4-((8-(6-oxa-3-aza-bicyclo[3.1.1]heptan-3-yl)-6-(2,6-di-chloro-3,5-dimethoxyphenyl)pyrido[3,4-d]pyrimidin-2-yl)amino)tetrahydro-furan-3-yl)acrylamide], at FGFR4, the 50% inhibitory concentration (IC50) was 5.2 nM. In assay [1], this compound returned an IC50 of 4.2 nM and an EC50 of 3.2 nM.
`C=CC(=O)N[C@H]1COC[C@H]1Nc1ncc2cc(-c3c(Cl)c(OC)cc(OC)c3Cl)nc(N3CC4CC3CO4)c2n1` (stereo partly drawn) [Example 763, N-((3R,4S)-4-((8-(2-oxa-5-azabicyclo[2.2.1]heptan-5-yl)-6-(2,6-dichloro-3,5-dimethoxyphenyl)py-rido[3,4-d]pyrimidin-2-yl)a-mino)tetrahydrofuran-3-yl)acrylamide]: the IC50 on FGFR4 stood at 7.9 nM. In assay [1], this compound displayed an IC50 of 11.1 nM and an EC50 of 7.8 nM.
For the compound `C=CC(=O)N[C@H]1COC[C@H]1Nc1ncc2cc(-c3c(F)c(OC)cc(OC)c3F)nc(NC)c2n1` [Example 764, N-((3R,4S)-4-((6-(2,6-difluoro-3,5-dimethoxyphenyl)-8-(methylamino)py-rido[3,4-d]pyrimidin-2-yl)amino)tetra-hydrofuran-3-yl)acrylamide], the IC50 on FGFR4 is 7 nM. In assay [1], this compound displayed an IC50 of 60.4 nM and an EC50 of 49.4 nM.
With `C=CC(=O)N[C@H]1COC[C@H]1Nc1ncc2cc(-c3c(Cl)c(OC)cc(OC)c3Cl)nc(N)c2n1` [Example 765, N-((3R,4S)-4-((8-amino-6-(2,6-di-chloro-3,5-dimethoxyphenyl)pyrido[3,4-d]pyrimidin-2-yl)amino)tetrahydro-furan-3-yl)acrylamide], the IC50 on FGFR4 was 158 nM. Besides, in assay [1], the IC50 came out at 656 nM and it took 421 nM to reach a half-maximal effect (EC50).
With `[2H]C([2H])([2H])Nc1nc(-c2c(Cl)c(OC([2H])([2H])[2H])cc(OC([2H])([2H])[2H])c2Cl)cc2cnc(N[C@@H]3COC[C@@H]3NC(=O)C=C)nc12` [Example 766, N-((3R,4S)-4-((6-(2,6-dichloro-3,5-bis(methoxy-d3)phenyl)-8-((methyl-d3)amino)pyrido[3,4-d]pyrimidin-2-yl)a-mino)tetrahydrofuran-3-yl)acrylamide], the IC50 on FGFR4 is 8.3 nM. In addition, in assay [1], half-maximal inhibition (IC50) was put at 27.9 nM and the midpoint of the response, the EC50, lay at 19.8 nM.
Consider `C=CC(=O)N[C@H]1COC[C@H]1Nc1ncc2cc(-c3c(F)c(OC)cc(OC)c3F)nc(NCC)c2n1` [Example 767, N-((3R,4S)-4-((6-(2,6-difluoro-3,5-dimethoxyphenyl)-8-(ethylamino)pyri-do[3,4-d]pyrimidin-2-yl)amino)tetra-hydrofuran-3-yl)acrylamide], for which the figures for the IC50 (at FGFR4; in assay [1]) were 7 nM and 45.1 nM, respectively. In assay [1], this compound showed an EC50 of 23.9 nM.
Regarding `C=CC(=O)N[C@H]1COC[C@H]1Nc1ncc2cc(-c3c(F)c(OC)cc(OC)c3F)nc(N3CC(F)(F)C3)c2n1` [Example 768, N-((3R,4S)-4-((6-(2,6-difluoro-3,5-dimethoxyphenyl)-8-(3,3-difluoro-azetidin-1-yl)pyrido[3,4-d]pyrimi-din-2-yl)amino)tetrahydro-furan-3-yl)acrylamide], the IC50 at FGFR4 was 4 nM. In assay [1], the IC50 turned out to be 12.5 nM and the EC50 came to 9.9 nM.
For the compound `C=CC(=O)N[C@H]1COC[C@H]1Nc1ncc2cc(-c3c(F)c(OC)cc(OC)c3F)nc(N3CC4CC(C3)O4)c2n1` [Example 769, N-((3R,4S)-4-((8-(6-oxa-3-azabicyclo[3.1.1]heptan-3-yl)-6-(2,6-difluoro-3,5-dimethoxy-phenyl)pyrido[3,4-d]pyrimidin-2-yl)amino)tetrahydrofuran-3-yl)acrylamide], the IC50 at FGFR4 was found to be 3.7 nM; in assay [1] it was 10 nM. In assay [1], this compound displayed an EC50 of 8.4 nM.
Take `C=CC(=O)N[C@H]1COC[C@H]1Nc1ncc2cc(-c3cccc(OC)c3F)nc(NC)c2n1` [Example 770, N-((3R,4S)-4-((6-(2-fluoro-3-meth-oxyphenyl)-8-(methylamino)pyrido[3,4-d]pyrimidin-2-yl)amino)tetrahydro-furan-3-yl)acrylamide]: the figures for the IC50 (on FGFR4; in assay [1]) were 2410 nM and > 10000 nM, respectively. Besides, in assay [1], the EC50 was > 10000 nM.
`[2H]C([2H])([2H])Nc1nc(-c2c(Cl)c(OC)cc(OC)c2Cl)cc2cnc(N[C@@H]3COC[C@@H]3NC(=O)C=C)nc12` [Example 771, N-((3R,4S)-4-((6-(2,6-dichloro-3,5-dimethoxyphenyl)-8-((methyl-d3)ami-no)pyrido[3,4-d]pyrimidin-2-yl)ami-no)tetrahydrofuran-3-yl)acrylamide]: at FGFR4, the IC50 came out at 7.9 nM. In assay [1], this compound registered an IC50 of 32.3 nM and an EC50 of 25.5 nM.
The corresponding values for `C=CC(=O)N[C@H]1COC[C@H]1Nc1ncc2cc(-c3c(F)c(OC)cc(OC)c3F)nc(N3CCC(C)(O)C3)c2n1` (stereo partly drawn) [Example 772, N-((3R,4S)-4-((6-(2,6-difluoro-3,5-dimethoxyphenyl)-8-(3-hydroxy-3-methylpyrrolidin-1-yl)pyrido[3,4-d]py-rimidin-2-l)amino)tetrahydrofuran-3-yl)acrylamide] are 2.9 nM, 8.1 nM and 6.8 nM.
Turning to `C=CC(=O)N[C@H]1COC[C@H]1Nc1ncc2cc(-c3c(F)c(OC)cc(OC)c3F)nc(N3CC(C)(O)C3)c2n1` [Example 773, N-((3R,4S)-4-((6-(2,6-difluoro-3,5-dimethoxyphenyl)-8-(3-hydroxy-3-meth-ylazetidin-1-yl)pyrido[3,4-d]py-rimidin-2-yl)amino)tetrahydrofuran-3-yl)acrylamide], on FGFR4, the IC50 worked out at 1.8 nM. In assay [1], this compound displayed an IC50 of 2.3 nM and an EC50 of 2 nM.
`C=CC(=O)N[C@H]1COC[C@H]1Nc1ncc2cc(-c3c(F)c(OC)cc(OC)c3F)nc(N3CCC3)c2n1` [Example 774, N-((3R,4S)-4-((8-(azetidin-1-yl)-6-(2,6-difluoro-3,5-dimethoxyphenyl)py-rido[3,4-d]pyrimidin-2-yl)amino)tetra-hydrofuran-3-yl)acrylamide]: the IC50 at FGFR4 came to 3.2 nM. In assay [1], this compound registered an IC50 of 8.8 nM and an EC50 of 6.9 nM.

These data come from patent US11555036B2, “FGFR4 inhibitor, preparation method therefor and pharmaceutical use thereof” (Abbisko Therapeutics Co., Ltd., priority 2016, dated 2023).
